Data as given in patent US7176313B2, “Anti acid-fast bacterial agent containing pyridonecarboxylic acids as active ingredient” (Daiichi Pharmaceutical Co., Ltd., priority 2000, dated 2007).
Converted amounts (≈) assume the structure as drawn. Where two headings read alike, the source gives them in different places.

Key:
[1] = test system: Mycobacterium tuberculosis (RFP sensitive); test: Antibacterial activity (MIC) against Mycobacterium tuberculosis (RFP sensitive); format: cell-based
M. avium = test: Antibacterial activity (MIC) against M. avium; format: cell-based, Mycobacterium avium
Protocol: Antibacterial activity of the compounds of the invention was measured in accordance with the method described in the literature of Antimicrob. […] In the tables, “OFLX” is an abbreviation of “OFLOXAIN”.

M. intracellulare = test: Antibacterial activity (MIC) against M. intracellulare; format: cell-based, Mycobacterium intracellulare
Protocol: Antibacterial activity of the compounds of the invention was measured in accordance with the method described in the literature of Antimicrob. Agents and Chemother., 38, 2877 (1994), and the results are shown in Tables 3 to 8 in terms of MIC (μg/ml). In the tables, “OFLX” is an abbreviation of “OFLOXAIN”.

[2] = Mouse acute toxicity test; format: in vivo, Male Slc:ddY mice; details: intravenous
Protocol: Mouse Acute Toxicity Test
Male Slc:ddY mice at age of 5-weeks were used as test animals. For dissolving the compounds, 0.1 mol/l NaOH (in saline) was used. Mice were administered intravenously at a rate of 0.1 ml/30 seconds at a dosing volume of 10 ml/kg.

reticulocytes (RC) = test: Peripheral blood micronucleus test; format: in vivo, Male Slc:ddY mice; details: mice, intravenous
Protocol: Peripheral Blood Micronucleus Test
Used animals and administration method are similar to those in the mouse acute toxicity test. Samples were prepared by collecting 5 μl each of blood sample from the tail vein at 24 and 48 hours after the administration, dropping the blood on a slide at which 0.1% acridine orange solution had been applied in advance, sealing the slide with a cover glass immediately, and allowing it to stand in a refrigerator for 24 hours.

[3] = M. tuberculosis Kurono, Table 5
[4] = M. tuberculosis No. 40, Table 5
[5] = M. tuberculosis No. 41, Table 5
[6] = M. tuberculosis No. 43, Table 5
[7] = M. tuberculosis No. 68, Table 5
[8] = M. intracellulare N-294, Table 3
[9] = M. intracellulare N-313, Table 3
[10] = M. intracellulare N-338, Table 3
[11] = M. intracellulare N-345, Table 3

SMILES | MIC ([1]; M. tuberculosis H37Rv, Table 5) [µg/mL] | MIC [1, 3] [µg/mL] | MIC [1, 4] [µg/mL] | MIC [1, 5] [µg/mL] | MIC [1, 6] [µg/mL] | MIC [1, 7] [µg/mL] | MIC (M. avium; M. avium N-357, Table 3) [µg/mL] | MIC (M. avium; M. avium N-444, Table 3) [µg/mL] | MIC (M. avium; M. avium N-458, Table 3) [µg/mL] | MIC (M. avium; M. avium N-472, Table 3) [µg/mL] | MIC (M. intracellulare; [8]) [µg/mL] | MIC (M. intracellulare; [9]) [µg/mL] | MIC (M. intracellulare; [10]) [µg/mL] | MIC (M. intracellulare; [11]) [µg/mL] | other results
COc1c(N2CCN3CCC2C3)c(F)cc2c(=O)c(C(=O)O)cn([C@@H]3C[C@@H]3F)c12 (stereo partly drawn) [Compd. 28, 7-{1,4-Diazabicyclo[3.2.1]octan-4-yl}-6-fluoro-1-[(1R,2S)-2-fluorocyclopropyl]-1,4-dihydro-8-methoxy-4-oxoquinoline-3-carboxylic acid] |  |  |  |  |  |  |  |  |  |  |  |  |  |  | melting point: 195 to 198 °C (dec.)
COc1c(N2CCNC(C3CC3)C2)c(F)cc2c(=O)c(C(=O)O)cn([C@@H]3C[C@@H]3F)c12 (stereo partly drawn) [Compd. 24, 7-(3-Cyclopropylpiperazin-1-yl)-6-fluoro-1-[(1R,2S)-2-fluorocyclopropyl]-1,4-dihydro-8-methoxy-4-oxoquinoline-3-carboxylic acid] |  |  |  |  |  |  |  |  |  |  |  |  |  |  | melting point: 136 to 139 °C
NC1CN(c2c(F)cc3c(=O)c(C(=O)O)cn(C4CC4)c3c2Cl)CC12CC2 (stereo not shown) [Compd. 3] | 0.10 (≈ 0.255 µM) | 0.05 (≈ 0.128 µM) | 0.10 (≈ 0.255 µM) | 0.006 (≈ 0.0153 µM) | 0.78 (≈ 1.99 µM) | 0.10 (≈ 0.255 µM) | 0.39 (≈ 0.995 µM) | 1.56 (≈ 3.98 µM) | 0.78 (≈ 1.99 µM) | 6.25 (≈ 16 µM) | 1.56 (≈ 3.98 µM) | 0.39 (≈ 0.995 µM) | 1.56 (≈ 3.98 µM) | 1.56 (≈ 3.98 µM) | 
C[C@H]1COc2c(N3CC4CCCNC4C3)c(F)cc3c(=O)c(C(=O)O)cn1c23 (stereo partly shown) [Compd. 13] | 0.05 (≈ 0.129 µM) | 0.05 (≈ 0.129 µM) | 0.05 (≈ 0.129 µM) |  |  | 0.10 (≈ 0.258 µM) | 0.39 (≈ 1.01 µM) | 0.78 (≈ 2.01 µM) | 0.20 (≈ 0.516 µM) | 1.56 (≈ 4.03 µM) | 1.56 (≈ 4.03 µM) | 0.39 (≈ 1.01 µM) | 1.56 (≈ 4.03 µM) | 3.13 (≈ 8.08 µM) | 
COc1c(N2C[C@@H](C)N[C@@H](C)C2)c(F)cc2c(=O)c(C(=O)O)cn([C@@H]3C[C@@H]3F)c12 [Compd. 16, 7-(3,5-cis-Dimethylpiperazin-1-yl)-6-fluoro-1-[2-(S)-fluoro-1-(R)-cyclopropyl]-1,4-dihydro-8-methoxy-4-oxoquinoline-3-carboxylic acid] |  |  |  |  |  |  |  |  |  |  |  |  |  |  | survival of mice after administration ([2]; text summary of Table 9): all mice were survived; Mortality (dead/ test) ([2]; mice, 150 mg/kg): 0/5; acute toxicity ([2]; mice, text summary of Table 9): relatively weak; MIC ([1]; Mycobacterium tuberculosis, H37RV, M. tuberculosis H37Rv, Table 6 (series 2), read-out: MIC): 0.12 µg/mL (≈ 0.295 µM); MIC ([1]; Mycobacterium tuberculosis, M. tuberculosis Kurono, Table 6 (series 2), read-out: MIC): 0.12 µg/mL (≈ 0.295 µM); MIC ([1]; Mycobacterium tuberculosis, M. tuberculosis No. 40, Table 6 (series 2), read-out: MIC): 0.12 µg/mL (≈ 0.295 µM); MIC ([1]; Mycobacterium tuberculosis, M. tuberculosis No. 41, Table 6 (series 2), read-out: MIC): 0.03 µg/mL (≈ 0.0736 µM); MIC ([1]; Mycobacterium tuberculosis, M. tuberculosis No. 43, Table 6 (series 2), read-out: MIC): 1 µg/mL (≈ 2.45 µM); MIC ([1]; Mycobacterium tuberculosis, M. tuberculosis No. 68, Table 6 (series 2), read-out: MIC): 0.12 µg/mL (≈ 0.295 µM); MIC (M. avium; Mycobacterium avium, M. avium N-357, Table 4 (series 2), read-out: MIC): 0.5 µg/mL (≈ 1.23 µM); MIC (M. avium; Mycobacterium avium, M. avium N-444, Table 4 (series 2), read-out: MIC): 1 µg/mL (≈ 2.45 µM); MIC (M. avium; Mycobacterium avium, M. avium N-458, Table 4 (series 2), read-out: MIC): 0.5 µg/mL (≈ 1.23 µM); MIC (M. avium; Mycobacterium avium, M. avium N-472, Table 4 (series 2), read-out: MIC): 4 µg/mL (≈ 9.82 µM); MNRC (%) mean ±S.E. 24 hours (reticulocytes (RC); 150 mg/kg, 24 hours after administration): 0.05 ± 0.03%; MNRC (%) mean ±S.E. 48 hours (reticulocytes (RC); 150 mg/kg, 48 hours after administration): 0.12 ± 0.02%; micronucleus induction (reticulocytes (RC); (untreated control: 0.12±0.08)): weak; MIC (M. intracellulare; Mycobacterium intracellulare, M. intracellulare N-294, Table 4 (series 2), read-out: MIC): 1 µg/mL (≈ 2.45 µM); MIC (M. intracellulare; Mycobacterium intracellulare, M. intracellulare N-313, Table 4 (series 2), read-out: MIC): 0.12 µg/mL (≈ 0.295 µM); MIC (M. intracellulare; Mycobacterium intracellulare, M. intracellulare N-338, Table 4 (series 2), read-out: MIC): 0.5 µg/mL (≈ 1.23 µM); MIC (M. intracellulare; Mycobacterium intracellulare, M. intracellulare N-345, Table 4 (series 2), read-out: MIC): 0.5 µg/mL (≈ 1.23 µM)
COc1c(N2CC(N)C3(CC3)C2)c(F)cc2c(=O)c(C(=O)O)cn([C@@H]3C[C@@H]3F)c12 (stereo partly shown) [Compd. 8] | 0.10 (≈ 0.247 µM) | 0.05 (≈ 0.123 µM) | 0.10 (≈ 0.247 µM) | 0.006 (≈ 0.0148 µM) | 0.78 (≈ 1.92 µM) | 0.20 (≈ 0.493 µM) | 1.56 (≈ 3.85 µM) | 1.56 (≈ 3.85 µM) | 0.78 (≈ 1.92 µM) | 3.13 (≈ 7.72 µM) | 1.56 (≈ 3.85 µM) | 0.39 (≈ 0.962 µM) | 1.56 (≈ 3.85 µM) | 1.56 (≈ 3.85 µM) | 
COc1c(N2CC3CCCNC3C2)c(F)cc2c(=O)c(C(=O)O)cn([C@@H]3C[C@@H]3F)c12 (stereo partly shown) [Compd. 6] | 0.10 (≈ 0.238 µM) | 0.05 (≈ 0.119 µM) | 0.10 (≈ 0.238 µM) | 0.013 (≈ 0.031 µM) | 0.78 (≈ 1.86 µM) | 0.05 (≈ 0.119 µM) | 0.39 (≈ 0.93 µM) | 1.56 (≈ 3.72 µM) | 0.78 (≈ 1.86 µM) | 3.13 (≈ 7.46 µM) | 0.78 (≈ 1.86 µM) | 0.78 (≈ 1.86 µM) | 1.56 (≈ 3.72 µM) | 3.13 (≈ 7.46 µM) | 
